According to patent EP0343258B1, “AGENT FOR PROPHYLAXIS AND TREATMENT OF VIRALLY INFECTED DISEASES” (MITSUI TOATSU CHEMICALS, Inc., priority 1987, dated 1989):
Non-standard residues stand in square brackets, D forms with d. Residues, ends and D or L forms follow the SMILES beside them. pGlu = O=C1CC[C@@H](C(=O)O)N1

Tests used:
REO virus type II = assay: Jerne plaque assay (antibody-forming cells against SRBC) in REO virus-infected new-born NC mice; type: in vivo; details: 10⁵ PFU REO virus; MDP 20 µg/mouse with Freund incomplete adjuvant, given with SRBC 2 weeks after infection; measured 4 days later
Method: Two weeks after the infection of 10⁵ PFU REO virus, sheep red blood cells (referred to hereinafter simply as SRBC) was intraperitoneally administered and 4 days after the administration, the number of hemolysis plaques was measured by way of Jerne plaque assay as a production amount of antibody-forming cells against SRBC. The number of hemolysis plaques was 15±2 per 10⁶ spleen cells in a group not infected with REO virus, while that was 2.8±1.6 in an infected group, thus showing a remarkable immunity inhibitory state. In compliance with this, atrophy of thymus and decrease in the number of thymic cortex lymphocytes were observed.
In a group to which muramyl dipeptide was administered in an amount of 20 µg/mouse together with Freund incomplete adjuvant, the number of hemolysis plaques was 11±2.
Next, recovery of the immune function by immunity-enhancing substance was examined, using new-born mice infected with REO virus type II. Two weeks after the infection of the mice with the virus, sheep red blood cells were administered to the mice, and 4 days after the administration, Jerne plaque assay was carried out to measure the number of hemolysis plaques. […]
Mice infected with virus was immunized at the same time with SRBC and an immunostimulant, and 4 days after the immunization, the number of hemolysis plaques was measured by Jerne plaque assay. […]

[1] = Toxicity test, repeated subcutaneous administration to mice; type: in vivo, ddy male mice
From the text: (§1) Thus, the medicament of the present invention is a safe medicament of extremely low toxicity and can be administered for a long period of time.

[2] = Toxicity test, repeated subcutaneous administration to rats; type: in vivo, wister rats; details: 30 mg/kg subcutaneously for consecutive 21 days
From the text: as §1

| SMILES | PFC/10⁶ spleen cells (REO virus type II) [PFC/10⁶ spleen cells] | toxicity ([1]; 50 mg/kg and 100mg/kg subcutaneously for consecutive 14 days) | abnormal symptom by external check ([1]; 100 mg/kg subcutaneously every day for consecutive 14 days) | abnormal symptom in external behavior observation, biochemical diagnosis of sera and pathological anatomy [2] | toxicity [2] |
| --- | --- | --- | --- | --- | --- |
| CC(=O)N[C@H]1C(O)O[C@H](CO)[C@@H](O)[C@@H]1O[C@H](C)C(=O)N[C@@H](C)C(=O)N[C@H](CCC(=O)O)C(N)=O (some centres unmarked) [MDP, muramyl dipeptide] | 11±2 | – | – | – | – |
| C[C@H](NC(=O)[C@@H]1CCC(=O)N1)C(=O)N[C@@H](CCCCN)C(=O)N[C@@H](CO)C(=O)N[C@@H](CCC(N)=O)C(=O)NCC(=O)NCC(=O)N[C@@H](CO)C(=O)N[C@@H](CC(N)=O)C(=O)O [FTS, pGlu-Ala-Lys-Ser-Gln-Gly-Gly-Ser-Asn] ([pGlu]AKSQGGSN-OH) | – | No toxicity was observed | no abnormal symptom was found | no abnormal symptom was found | No toxicity was observed |
